Measurements: US20080069785A1, “PEST-CONTROL COMPOSITIONS, AND METHODS AND PRODUCTS UTILIZING SAME” (priority 2004, published 2008)

Test system: cockroaches (Blattella germanica)
Experiment: Weeklong surface area toxicity test on cockroaches (Example 19)
Type: in vivo
Procedure: In order determine the toxicity of the formulation to the insect after application to a surface over a period of time, the following test was performed. […] Cockroaches were placed in the cups on the first day following the application of the formulations, on the third day following the application of the formulations, and on the sixth day following the application of the formulations in order to monitor the toxicity of the formulations after a period of time had elapsed. The mortality of the cockroaches was then recorded at the time intervals noted. The five cockroaches placed in each cup were one week old cockroaches (Blattella germanica) which had been reared at twenty seven degrees centigrade, at sixty five percent relative humidity, and on a twelve hour light to dark photoperiod. Each of the cups had Fluon®AD1 treated sides to prevent the escape of the cockroaches.

## CCCCCCCCCC(C)=O [Undecanone, 2-Undecanone]
3-4 days treatment, 0.09 μL/cm^2 (5 μL), 23 h
  cockroaches alive (of five per cup): 5
3-4 days treatment, 0.09 μL/cm^2 (5 μL), 24 h
  cockroaches alive (of five per cup): 5
3-4 days treatment, 0.09 μL/cm^2 (5 μL), 27 h
  cockroaches alive (of five per cup): 5
3-4 days treatment, 0.09 μL/cm^2 (5 μL), 30 h
  cockroaches alive (of five per cup): 5
3-4 days treatment, 0.19 μL/cm^2 (10 μL), 5 min
  cockroaches alive (of five per cup): 5
3-4 days treatment, 0.19 μL/cm^2 (10 μL), 10 min
  cockroaches alive (of five per cup): 5
3-4 days treatment, 0.19 μL/cm^2 (10 μL), 15 min
  cockroaches alive (of five per cup): 5
3-4 days treatment, 0.19 μL/cm^2 (10 μL), 30 min
  cockroaches alive (of five per cup): 5
3-4 days treatment, 0.19 μL/cm^2 (10 μL), 60 min
  cockroaches alive (of five per cup): 5
3-4 days treatment, 0.19 μL/cm^2 (10 μL), 90 min
  cockroaches alive (of five per cup): 5
3-4 days treatment, 0.19 μL/cm^2 (10 μL), 2 h
  cockroaches alive (of five per cup): 5
3-4 days treatment, 0.19 μL/cm^2 (10 μL), 4 h
  cockroaches alive (of five per cup): 5
3-4 days treatment, 0.19 μL/cm^2 (10 μL), 23 h
  cockroaches alive (of five per cup): 5
3-4 days treatment, 0.19 μL/cm^2 (10 μL), 24 h
  cockroaches alive (of five per cup): 5
3-4 days treatment, 0.19 μL/cm^2 (10 μL), 27 h
  cockroaches alive (of five per cup): 5
3-4 days treatment, 0.19 μL/cm^2 (10 μL), 30 h
  cockroaches alive (of five per cup): 5
3-4 days treatment, 0.95 μL/cm^2 (50 μL), 5 min
  cockroaches alive (of five per cup): 5
3-4 days treatment, 0.95 μL/cm^2 (50 μL), 10 min
  cockroaches alive (of five per cup): 5
3-4 days treatment, 0.95 μL/cm^2 (50 μL), 15 min
  cockroaches alive (of five per cup): 5
3-4 days treatment, 0.95 μL/cm^2 (50 μL), 30 min
  cockroaches alive (of five per cup): 5
3-4 days treatment, 0.95 μL/cm^2 (50 μL), 60 min
  cockroaches alive (of five per cup): 5
3-4 days treatment, 0.95 μL/cm^2 (50 μL), 90 min
  cockroaches alive (of five per cup): 5
3-4 days treatment, 0.95 μL/cm^2 (50 μL), 2 h
  cockroaches alive (of five per cup): 3
3-4 days treatment, 0.95 μL/cm^2 (50 μL), 4 h
  cockroaches alive (of five per cup): 2
3-4 days treatment, 0.95 μL/cm^2 (50 μL), 23 h
  cockroaches alive (of five per cup): 1
3-4 days treatment, 0.95 μL/cm^2 (50 μL), 24 h
  cockroaches alive (of five per cup): 1
3-4 days treatment, 0.95 μL/cm^2 (50 μL), 27 h
  cockroaches alive (of five per cup): 0
3-4 days treatment, 0.95 μL/cm^2 (50 μL), 30 h
  cockroaches alive (of five per cup): 0
6-7 days treatment, 0.02 μL/cm^2 (1 μL), 5 min
  cockroaches alive (of five per cup): 5
6-7 days treatment, 0.02 μL/cm^2 (1 μL), 10 min
  cockroaches alive (of five per cup): 5
6-7 days treatment, 0.02 μL/cm^2 (1 μL), 15 min
  cockroaches alive (of five per cup): 5
6-7 days treatment, 0.02 μL/cm^2 (1 μL), 30 min
  cockroaches alive (of five per cup): 5
6-7 days treatment, 0.02 μL/cm^2 (1 μL), 60 min
  cockroaches alive (of five per cup): 5
6-7 days treatment, 0.02 μL/cm^2 (1 μL), 90 min
  cockroaches alive (of five per cup): 5
6-7 days treatment, 0.02 μL/cm^2 (1 μL), 2 h
  cockroaches alive (of five per cup): 5
6-7 days treatment, 0.02 μL/cm^2 (1 μL), 4 h
  cockroaches alive (of five per cup): 5
6-7 days treatment, 0.02 μL/cm^2 (1 μL), 21.5 h
  cockroaches alive (of five per cup): 5
6-7 days treatment, 0.02 μL/cm^2 (1 μL), 22 h
  cockroaches alive (of five per cup): 5
6-7 days treatment, 0.02 μL/cm^2 (1 μL), 23 h
  cockroaches alive (of five per cup): 5
6-7 days treatment, 0.02 μL/cm^2 (1 μL), 24 h
  cockroaches alive (of five per cup): 5
6-7 days treatment, 0.02 μL/cm^2 (1 μL), 27 h
  cockroaches alive (of five per cup): 5
6-7 days treatment, 0.02 μL/cm^2 (1 μL), 29 h
  cockroaches alive (of five per cup): 5
6-7 days treatment, 0.02 μL/cm^2 (1 μL), 30 h
  cockroaches alive (of five per cup): 5
6-7 days treatment, 0.02 μL/cm^2 (1 μL), 31 h
  cockroaches alive (of five per cup): 5
6-7 days treatment, 0.09 μL/cm^2 (5 μL), 5 min
  cockroaches alive (of five per cup): 5
6-7 days treatment, 0.09 μL/cm^2 (5 μL), 10 min
  cockroaches alive (of five per cup): 5
6-7 days treatment, 0.09 μL/cm^2 (5 μL), 15 min
  cockroaches alive (of five per cup): 5
6-7 days treatment, 0.09 μL/cm^2 (5 μL), 30 min
  cockroaches alive (of five per cup): 5
6-7 days treatment, 0.09 μL/cm^2 (5 μL), 60 min
  cockroaches alive (of five per cup): 5
6-7 days treatment, 0.09 μL/cm^2 (5 μL), 90 min
  cockroaches alive (of five per cup): 5
6-7 days treatment, 0.09 μL/cm^2 (5 μL), 2 h
  cockroaches alive (of five per cup): 5
6-7 days treatment, 0.09 μL/cm^2 (5 μL), 4 h
  cockroaches alive (of five per cup): 5
6-7 days treatment, 0.09 μL/cm^2 (5 μL), 21.5 h
  cockroaches alive (of five per cup): 5
6-7 days treatment, 0.09 μL/cm^2 (5 μL), 22 h
  cockroaches alive (of five per cup): 5
6-7 days treatment, 0.09 μL/cm^2 (5 μL), 23 h
  cockroaches alive (of five per cup): 5
6-7 days treatment, 0.09 μL/cm^2 (5 μL), 24 h
  cockroaches alive (of five per cup): 5
6-7 days treatment, 0.09 μL/cm^2 (5 μL), 27 h
  cockroaches alive (of five per cup): 5
6-7 days treatment, 0.09 μL/cm^2 (5 μL), 29 h
  cockroaches alive (of five per cup): 5
6-7 days treatment, 0.09 μL/cm^2 (5 μL), 30 h
  cockroaches alive (of five per cup): 5
6-7 days treatment, 0.09 μL/cm^2 (5 μL), 31 h
  cockroaches alive (of five per cup): 5
6-7 days treatment, 0.19 μL/cm^2 (10 μL), 5 min
  cockroaches alive (of five per cup): 5
6-7 days treatment, 0.19 μL/cm^2 (10 μL), 10 min
  cockroaches alive (of five per cup): 5
6-7 days treatment, 0.19 μL/cm^2 (10 μL), 15 min
  cockroaches alive (of five per cup): 5
6-7 days treatment, 0.19 μL/cm^2 (10 μL), 30 min
  cockroaches alive (of five per cup): 5
6-7 days treatment, 0.19 μL/cm^2 (10 μL), 60 min
  cockroaches alive (of five per cup): 5
6-7 days treatment, 0.19 μL/cm^2 (10 μL), 90 min
  cockroaches alive (of five per cup): 5
6-7 days treatment, 0.19 μL/cm^2 (10 μL), 2 h
  cockroaches alive (of five per cup): 5
6-7 days treatment, 0.19 μL/cm^2 (10 μL), 4 h
  cockroaches alive (of five per cup): 5
6-7 days treatment, 0.19 μL/cm^2 (10 μL), 21.5 h
  cockroaches alive (of five per cup): 5
6-7 days treatment, 0.19 μL/cm^2 (10 μL), 22 h
  cockroaches alive (of five per cup): 5
6-7 days treatment, 0.19 μL/cm^2 (10 μL), 23 h
  cockroaches alive (of five per cup): 5
6-7 days treatment, 0.19 μL/cm^2 (10 μL), 24 h
  cockroaches alive (of five per cup): 5
6-7 days treatment, 0.19 μL/cm^2 (10 μL), 27 h
  cockroaches alive (of five per cup): 5
6-7 days treatment, 0.19 μL/cm^2 (10 μL), 29 h
  cockroaches alive (of five per cup): 5
6-7 days treatment, 0.19 μL/cm^2 (10 μL), 30 h
  cockroaches alive (of five per cup): 5
6-7 days treatment, 0.19 μL/cm^2 (10 μL), 31 h
  cockroaches alive (of five per cup): 5
6-7 days treatment, 0.95 μL/cm^2 (50 μL), 21.5 h
  cockroaches alive (of five per cup): 2
6-7 days treatment, 0.95 μL/cm^2 (50 μL), 22 h
  cockroaches alive (of five per cup): 2
6-7 days treatment, 0.95 μL/cm^2 (50 μL), 23 h
  cockroaches alive (of five per cup): 2
6-7 days treatment, 0.95 μL/cm^2 (50 μL), 24 h
  cockroaches alive (of five per cup): 2
